Results: patent US20260217701A1, “SELECTIVE BET INHIBITORS AND USES THEREOF” (Tay Therapeutics Limited, priority 2022, published 2026)
Marks after values point to notes of the source that are not given here.

Experiments:
[1] = test system: collagen-induced arthritis; assay: CIA model: histopathologic analysis of hind limbs; assay type: in vivo, Lewis rats; conditions: for Pathologic observations after microscopic evaluation: Group 3 (CIA + Dexamethasone); for Erosion/Ulcer, cartilaginous, Marked (number of animals) / Erosion/Ulcer, cartilaginous, Mild (number of animals) / Erosion/Ulcer, cartilaginous, Minimal (number of animals) / Erosion/Ulcer, cartilaginous, Moderate (number of animals) / Granulation tissue, Marked (number of animals) / Granulation tissue, Mild (number of animals) / Granulation tissue, Minimal (number of animals) / Granulation tissue, Moderate (number of animals) / Increased bone, periosteum, Marked (number of animals) / Increased bone, periosteum, Mild (number of animals) / Increased bone, periosteum, Minimal (number of animals) / Increased bone, periosteum, Moderate (number of animals) / Increased eroded surface, bone, Marked (number of animals) / Increased eroded surface, bone, Mild (number of animals) / Increased eroded surface, bone, Minimal (number of animals) / Increased eroded surface, bone, Moderate (number of animals) / Mixed cell inflammation, Marked (number of animals) / Mixed cell inflammation, Mild (number of animals) / Mixed cell inflammation, Minimal (number of animals) / Mixed cell inflammation, Moderate (number of animals) / No Visible Lesions (number of animals): hind limbs, CIA induced, 8 animals examined, comparator, dose not given
Description: Mean histopathologic scores for tissue samples from animals in Groups 1-6 are depicted in FIG. 22A, and day 21 histology scores for all animals are illustrated in FIG. 22B.

anti-collagen IgG1 = assay: CIA model: rat anti-collagen IgG1 levels; assay type: in vivo, Lewis rats; design: Average rat anti-collagen IgG1 levels, Mean: unit not given here; conditions: Group 3 (CIA + Dexamethasone)

Compound	Erosion/Ulcer, cartilaginous, Marked (number of animals) [1]	Erosion/Ulcer, cartilaginous, Mild (number of animals) [1]	Erosion/Ulcer, cartilaginous, Minimal (number of animals) [1]	Erosion/Ulcer, cartilaginous, Moderate (number of animals) [1]	Granulation tissue, Marked (number of animals) [1]	Granulation tissue, Mild (number of animals) [1]	Granulation tissue, Minimal (number of animals) [1]	Granulation tissue, Moderate (number of animals) [1]	Increased bone, periosteum, Marked (number of animals) [1]	Increased bone, periosteum, Mild (number of animals) [1]	Increased bone, periosteum, Minimal (number of animals) [1]	Increased bone, periosteum, Moderate (number of animals) [1]	Increased eroded surface, bone, Marked (number of animals) [1]	Increased eroded surface, bone, Mild (number of animals) [1]	Increased eroded surface, bone, Minimal (number of animals) [1]	Increased eroded surface, bone, Moderate (number of animals) [1]	Mixed cell inflammation, Marked (number of animals) [1]	Mixed cell inflammation, Mild (number of animals) [1]	Mixed cell inflammation, Minimal (number of animals) [1]	Mixed cell inflammation, Moderate (number of animals) [1]	other results
C[C@@H]1C[C@H]2[C@@H]3CCC4=CC(=O)C=C[C@]4(C)[C@@]3(F)[C@@H](O)C[C@]2(C)[C@@]1(O)C(=O)CO [Dexamethasone, dexamethasone]	0	0	0	0	0	0	0	0	0	0	0	0	0	0	0	0	0	0	0	0	Pathologic observations after microscopic evaluation [1]: no histopathological observations noted; Pathologic observations after microscopic evaluation ([1]; listed as dexamethasone): No pathologic observations; No Visible Lesions (number of animals) [1]: 8; Average rat anti-collagen IgG1 levels, Mean (anti-collagen IgG1): 7833.69*
CNC(=O)c1cc(C(=O)NC2CC2)cn(Cc2ccccc2)c1=O [GSK620]	0	6	0	2	0	4	0	4	0	6	0	2	0	4	1	3	0	0	0	8	Erosion/ulcer in articular cartilage, grade ([1]; Group 4 (CIA + GSK620)): mild and mild to moderate; Granulation tissue (pannus), grade ([1]; Group 4 (CIA + GSK620)): mild and mild to moderate; Increased eroded surface of bone (bone resorption), grade ([1]; Group 4 (CIA + GSK620)): mild and minimal to moderate; Increased periosteal bone (periosteal bone formation), grade ([1]; Group 4 (CIA + GSK620)): mild and mild to moderate; Mixed cell inflammation, grade ([1]; Group 4 (CIA + GSK620)): moderate; No Visible Lesions (number of animals) [1]: 0
